Results on 1 compound are retold here after publication PMC5767327, “Tonically Active α2 Subunit-Containing Glycine Receptors Regulate the Excitability of Striatal Medium Spiny Neurons” (Frontiers in Molecular Neuroscience, 2018).

This test addresses T1, GlyR α2 (native α2 subunit-containing glycine receptors of striatal medium spiny neurons) (Mus musculus, UniProt Q7TNC8).
T1 construct: gene Glra2; native full-length receptor in adult dorsal striatal slices; α2 homomer or α2β heteromer (Glrb) not resolved by authors; no glycine current in Glra2 knockout MSNs
The experiment in a line: whole-cell patch clamp, evoked chloride current, fast perfusion, Hill fit. It counts as cell-based. To be noted: read-out: STP MSNs (n = 6); agonist; STP MSNs (Drd2-EGFP) in acute striatal slices, native receptor; -80 mV, 32°C; with gabazine, CNQX, DHβE, L-689,560, TTX; authors call it a higher boundary (diffusion in slice). An excerpt: whole-cell patch clamp, evoked chloride current, fast perfusion, Hill fit on GlyR α2 (native α2 subunit-containing glycine receptors of striatal medium spiny neurons)

T1 sequence (Q7TNC8 28-452): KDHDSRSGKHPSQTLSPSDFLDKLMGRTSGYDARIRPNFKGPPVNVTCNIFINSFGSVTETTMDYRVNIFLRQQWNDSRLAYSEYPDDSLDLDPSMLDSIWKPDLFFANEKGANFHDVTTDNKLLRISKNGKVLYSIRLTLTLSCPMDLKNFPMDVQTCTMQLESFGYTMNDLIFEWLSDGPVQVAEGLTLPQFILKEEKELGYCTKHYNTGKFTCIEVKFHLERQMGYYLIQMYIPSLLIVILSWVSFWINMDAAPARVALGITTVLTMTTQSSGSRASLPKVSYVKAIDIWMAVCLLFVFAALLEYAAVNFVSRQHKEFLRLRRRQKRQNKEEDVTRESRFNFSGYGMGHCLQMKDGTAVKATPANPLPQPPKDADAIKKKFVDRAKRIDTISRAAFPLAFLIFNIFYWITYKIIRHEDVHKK

For the compound `NCC(=O)O` [glycine], the EC50 was found to be 317 ± 25.4 µM.
